Source: publication PMC11912475 (Journal of Medicinal Chemistry, 2025)

Experiments:
Type in all cases: cell-based
Conditions in all cases: CHO cells, 10 μM L-glutamate and 10 μM glycine; n.d. = 50% of inhibition could not be reached at the highest concentration used
[1] = target: GluN1-GluN2C NMDAR subtype (Homo sapiens, UniProt Q05586+Q14957); assay: FLIPR/Ca2+ assay, NMDAR GluN1-GluN2C subtype in CHO cells
Method: (§1) These compounds were assessed for their effects on specific heterodimeric NMDAR subtypes stably overexpressed in Chinese Hamster Ovary (CHO) cells. The subtypes tested included GluN1-GluN2A, GluN1-GluN2B, GluN1-GluN2C, and GluN1-GluN2D. CHO cells expressing each of the four NMDAR subtypes were incubated with 10 μM L-glutamate, a concentration known to elicit maximal Ca^2+ influx, serving as the stimulus. Intracellular Ca^2+ levels were subsequently measured to determine the extent of NMDAR activation.
(§2) Assay buffer composition was 145 mM NaCl, 5 mM KCl, 2 mM CaCl2, 1 g/Liter D-(+)-glucose, and 20 mM HEPES (pH 7.3 adjusted with NaOH). Cells were plated at a density of 15.000/well in 384 black/clear bottom plates. […] Cells were kept at 30 °C in 5% CO2 incubator for 24 h. Cells were preloaded for 1 h with 2 μM Fluo-4 Ca^2+-sensitive probe, simultaneously with 2.5 mM probenecid, an inhibitor of nonspecific anion transport, and 500 μM ketamine to avoid cytotoxicity. […] Intracellular Ca^2+ level was monitored by FLIPR (excitation wavelength at 470–495 nm, emission wavelength at 515–575 nm) for 10 s before and 5 min after the addition of test items. All test items, including L-glutamate and glycine, were added simultaneously. […] FLIPR data were normalized as 100%, in the presence of 10 μM L-glutamate and 10 μM glycine, while as 0%, in the presence of assay buffer. […] Then, data were normalized by Excel 2013 (Microsoft Office) software, using wells added with 10 μM L-glutamate plus 10 μM glycine (column 23) as high control, and wells added with assay buffer only (column 24) as low control. To assess plate quality, Z′ calculations were performed in Excel. Z′ was calculated according to following equation: Z′ = 1–3(σh + σl)/|μh – μL| where μ and σ are the means and the standard deviations of the means of high (h) and low (l) controls, respectively. Compound concentration–response curves were plotted by Prism 8 GraphPad software, in the different experimental conditions (see Supporting Information). Data were analyzed using least-squares regression fitting, to fit data to a standard four parameters logistic equation using GraphPad Prism10. This regression fitting allowed the calculation of pIC50 and the corresponding SEM.

[2] = target: GluN1-GluN2A NMDAR subtype (Homo sapiens, UniProt Q05586+Q12879); assay: FLIPR/Ca2+ assay, NMDAR GluN1-GluN2A subtype in CHO cells
Method: as §1, §2

[3] = target: GluN1-GluN2D NMDAR subtype (Homo sapiens, UniProt O15399+Q05586); assay: FLIPR/Ca2+ assay, NMDAR GluN1-GluN2D subtype in CHO cells
Method: as §1, §2

[4] = target: T1, GluN1-GluN2B NMDAR subtype (Homo sapiens, UniProt Q05586+Q13224); assay: FLIPR/Ca2+ assay, NMDAR GluN1-GluN2B subtype in CHO cells
T1 construct: host or cells: NR1-2B-CHO cells, constitutive expression
Method: as §1, §2

Chain of GluN1-GluN2A NMDAR subtype (Q12879 23-1464, other chains not shown): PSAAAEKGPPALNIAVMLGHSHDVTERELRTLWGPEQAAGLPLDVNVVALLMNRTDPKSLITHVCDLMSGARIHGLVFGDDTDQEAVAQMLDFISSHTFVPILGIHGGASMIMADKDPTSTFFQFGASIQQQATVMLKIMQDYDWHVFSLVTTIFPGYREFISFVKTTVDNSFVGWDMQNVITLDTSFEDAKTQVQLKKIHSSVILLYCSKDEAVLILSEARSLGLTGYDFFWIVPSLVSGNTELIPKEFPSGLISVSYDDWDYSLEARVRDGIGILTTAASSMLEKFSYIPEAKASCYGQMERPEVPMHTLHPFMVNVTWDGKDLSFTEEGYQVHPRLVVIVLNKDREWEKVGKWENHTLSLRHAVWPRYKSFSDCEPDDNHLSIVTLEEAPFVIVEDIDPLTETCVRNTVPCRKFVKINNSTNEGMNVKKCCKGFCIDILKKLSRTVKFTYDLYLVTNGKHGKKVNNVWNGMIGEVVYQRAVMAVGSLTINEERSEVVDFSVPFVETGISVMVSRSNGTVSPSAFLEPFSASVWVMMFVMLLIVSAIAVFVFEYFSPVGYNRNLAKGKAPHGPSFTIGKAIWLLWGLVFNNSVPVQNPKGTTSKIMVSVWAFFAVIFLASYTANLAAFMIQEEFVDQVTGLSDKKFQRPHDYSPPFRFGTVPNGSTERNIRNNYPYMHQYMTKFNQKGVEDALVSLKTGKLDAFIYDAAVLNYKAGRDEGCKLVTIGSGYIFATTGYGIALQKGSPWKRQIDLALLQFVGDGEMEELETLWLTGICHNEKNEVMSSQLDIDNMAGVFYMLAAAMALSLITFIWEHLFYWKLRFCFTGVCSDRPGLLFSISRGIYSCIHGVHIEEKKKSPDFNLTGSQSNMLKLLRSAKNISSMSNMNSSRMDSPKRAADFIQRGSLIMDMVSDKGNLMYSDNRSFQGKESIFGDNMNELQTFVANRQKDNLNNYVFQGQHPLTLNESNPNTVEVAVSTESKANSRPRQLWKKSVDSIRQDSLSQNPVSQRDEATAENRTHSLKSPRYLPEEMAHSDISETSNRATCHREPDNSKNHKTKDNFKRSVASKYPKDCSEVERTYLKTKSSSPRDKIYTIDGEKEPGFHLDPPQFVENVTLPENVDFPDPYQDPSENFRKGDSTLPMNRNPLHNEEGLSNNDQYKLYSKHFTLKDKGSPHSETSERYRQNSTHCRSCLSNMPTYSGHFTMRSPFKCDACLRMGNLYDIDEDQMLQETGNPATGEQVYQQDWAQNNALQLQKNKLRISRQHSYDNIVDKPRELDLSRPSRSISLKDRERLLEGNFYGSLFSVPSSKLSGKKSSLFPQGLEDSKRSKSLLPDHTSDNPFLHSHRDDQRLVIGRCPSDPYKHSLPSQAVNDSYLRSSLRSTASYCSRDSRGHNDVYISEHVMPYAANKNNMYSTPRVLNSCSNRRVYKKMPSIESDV
Chain of GluN1-GluN2D NMDAR subtype (O15399 28-1336, other chains not shown): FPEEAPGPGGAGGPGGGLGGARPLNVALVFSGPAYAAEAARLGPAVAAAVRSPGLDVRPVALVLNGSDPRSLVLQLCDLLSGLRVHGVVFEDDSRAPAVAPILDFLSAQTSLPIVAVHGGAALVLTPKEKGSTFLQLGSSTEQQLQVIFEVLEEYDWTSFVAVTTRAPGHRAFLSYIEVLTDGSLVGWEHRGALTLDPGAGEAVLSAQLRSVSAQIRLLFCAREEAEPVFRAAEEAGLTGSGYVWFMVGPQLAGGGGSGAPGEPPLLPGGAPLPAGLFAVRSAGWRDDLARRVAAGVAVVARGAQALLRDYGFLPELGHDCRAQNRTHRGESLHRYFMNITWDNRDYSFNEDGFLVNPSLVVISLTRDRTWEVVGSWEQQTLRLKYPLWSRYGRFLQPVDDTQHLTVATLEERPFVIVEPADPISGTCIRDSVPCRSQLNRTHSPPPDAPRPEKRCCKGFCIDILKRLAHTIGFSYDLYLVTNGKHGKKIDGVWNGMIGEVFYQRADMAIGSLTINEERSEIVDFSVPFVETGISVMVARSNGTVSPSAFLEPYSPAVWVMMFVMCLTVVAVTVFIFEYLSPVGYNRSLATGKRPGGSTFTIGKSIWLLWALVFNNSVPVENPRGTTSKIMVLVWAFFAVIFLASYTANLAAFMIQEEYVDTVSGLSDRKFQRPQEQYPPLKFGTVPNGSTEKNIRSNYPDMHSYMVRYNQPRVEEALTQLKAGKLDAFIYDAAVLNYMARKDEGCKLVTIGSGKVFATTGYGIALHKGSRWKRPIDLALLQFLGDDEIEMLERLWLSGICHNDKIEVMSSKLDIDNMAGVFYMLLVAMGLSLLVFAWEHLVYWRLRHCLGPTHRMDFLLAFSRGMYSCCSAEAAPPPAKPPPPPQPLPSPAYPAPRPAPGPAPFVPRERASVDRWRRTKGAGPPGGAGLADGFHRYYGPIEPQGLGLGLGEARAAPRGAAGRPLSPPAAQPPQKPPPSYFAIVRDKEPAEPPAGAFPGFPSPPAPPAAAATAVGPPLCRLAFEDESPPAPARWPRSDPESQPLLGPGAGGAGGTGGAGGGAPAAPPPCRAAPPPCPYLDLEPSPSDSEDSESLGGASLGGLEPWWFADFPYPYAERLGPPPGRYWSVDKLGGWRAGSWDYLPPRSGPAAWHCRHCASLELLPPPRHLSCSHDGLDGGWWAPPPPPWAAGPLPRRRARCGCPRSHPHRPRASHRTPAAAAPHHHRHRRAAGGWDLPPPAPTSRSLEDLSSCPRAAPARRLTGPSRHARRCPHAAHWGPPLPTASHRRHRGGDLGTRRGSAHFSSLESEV
T1 sequence (Q13224 27-1484, other chains not shown): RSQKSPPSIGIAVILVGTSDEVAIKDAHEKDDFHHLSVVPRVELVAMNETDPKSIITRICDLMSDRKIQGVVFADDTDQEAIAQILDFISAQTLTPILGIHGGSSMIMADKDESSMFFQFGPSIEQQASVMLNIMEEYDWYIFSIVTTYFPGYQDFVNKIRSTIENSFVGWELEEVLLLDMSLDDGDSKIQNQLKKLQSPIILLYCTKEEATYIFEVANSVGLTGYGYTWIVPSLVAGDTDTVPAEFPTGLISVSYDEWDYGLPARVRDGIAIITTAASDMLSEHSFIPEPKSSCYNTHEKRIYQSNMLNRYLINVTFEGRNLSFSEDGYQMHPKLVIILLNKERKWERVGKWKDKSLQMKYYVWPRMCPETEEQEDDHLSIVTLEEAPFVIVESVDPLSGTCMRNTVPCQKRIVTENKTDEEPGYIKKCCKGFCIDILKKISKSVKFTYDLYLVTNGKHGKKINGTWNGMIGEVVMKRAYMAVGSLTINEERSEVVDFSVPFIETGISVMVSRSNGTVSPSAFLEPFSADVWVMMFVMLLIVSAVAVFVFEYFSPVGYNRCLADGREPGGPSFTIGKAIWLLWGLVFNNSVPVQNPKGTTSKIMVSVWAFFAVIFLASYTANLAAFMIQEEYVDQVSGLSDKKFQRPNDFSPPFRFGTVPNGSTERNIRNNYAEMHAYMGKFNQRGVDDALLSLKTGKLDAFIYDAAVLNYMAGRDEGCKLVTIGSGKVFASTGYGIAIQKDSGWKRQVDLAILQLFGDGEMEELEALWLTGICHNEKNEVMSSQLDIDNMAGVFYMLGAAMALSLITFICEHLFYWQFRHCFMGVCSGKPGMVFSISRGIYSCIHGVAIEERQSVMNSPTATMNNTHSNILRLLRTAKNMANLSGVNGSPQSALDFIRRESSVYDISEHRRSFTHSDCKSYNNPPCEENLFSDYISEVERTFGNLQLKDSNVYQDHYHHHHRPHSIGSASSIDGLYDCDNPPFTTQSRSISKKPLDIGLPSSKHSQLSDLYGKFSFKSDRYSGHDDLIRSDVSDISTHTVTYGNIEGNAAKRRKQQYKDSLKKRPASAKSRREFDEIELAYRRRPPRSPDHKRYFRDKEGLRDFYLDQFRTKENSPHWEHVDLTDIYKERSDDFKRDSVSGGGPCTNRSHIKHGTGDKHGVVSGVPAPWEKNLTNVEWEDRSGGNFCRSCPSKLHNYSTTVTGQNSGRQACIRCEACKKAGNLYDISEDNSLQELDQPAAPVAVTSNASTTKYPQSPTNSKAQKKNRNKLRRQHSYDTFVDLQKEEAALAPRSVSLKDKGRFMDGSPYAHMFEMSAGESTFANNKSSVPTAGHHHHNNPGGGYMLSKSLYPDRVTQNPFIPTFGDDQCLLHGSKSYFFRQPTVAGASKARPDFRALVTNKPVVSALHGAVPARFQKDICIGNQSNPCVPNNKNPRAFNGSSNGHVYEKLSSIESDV

Compound | pIC50 (mean ± SEM) GluN1-GluN2C [1] | pIC50 (mean ± SEM) GluN1-GluN2A [2] | pIC50 (mean ± SEM) GluN1-GluN2D [3] | pIC50 (mean ± SEM) GluN1-GluN2B [4]
CNC1(c2ccccc2Cl)CCCCC1=O (racemic) [(±)-ketamine, reference compound] | 5.4 ± 0.069 | 4.6 ± 0.028 | 5.0 ± 0.087 | 5.2 ± 0.037
CC[C@@H](O)C(C[C@@H](C)N(C)C)(c1ccccc1)c1ccccc1 [(3R,6R)-ML, (3R,6R)-6-(dimethylamino)-4,4-diphenylheptan-3-ol] | 4.1 ± 0.062 | 4.5 ± 0.085 | 4.3 ± 0.12 | 4.0 ± 0.12
CC[C@@H](O)C(C[C@H](C)N(C)C)(c1ccccc1)c1ccccc1 [(3R,6S)-ML, (3R,6S)-6-(dimethylamino)-4,4-diphenylheptan-3-ol] | – | 4.0 ± 0.23 | – | –
CC[C@H](O)C(C[C@@H](C)N(C)C)(c1ccccc1)c1ccccc1 [(3S,6R)-ML, (3S,6R)-6-(dimethylamino)-4,4-diphenylheptan-3-ol] | 4.2 ± 0.074 | 4.5 ± 0.18 | 4.2 ± 0.23 | –
CC[C@H](O)C(C[C@H](C)N(C)C)(c1ccccc1)c1ccccc1 [(3S,6S)-ML, (3S,6S)-6-(dimethylamino)-4,4-diphenylheptan-3-ol] | 4.1 ± 0.056 | 4.1 ± 0.034 | 4.2 ± 0.16 | 4.0 ± 0.077
